The values below come from EP1751175B1, “INTERLEUKIN-1 RECEPTOR ANTAGONISTS, COMPOSITIONS, AND METHODS OF TREATMENT” (VALORISATION-RECHERCHE, Société en Commandite, priority 2004, dated 2005).

One may read the pIC50 as the IC50 on a negative log10 scale, so that one unit is a factor of ten.

The target of experiment [1] is T1, TF-1 cells (Homo sapiens, UniProt P14778+Q9NPH3).
T1 sequence (P14778 18-569): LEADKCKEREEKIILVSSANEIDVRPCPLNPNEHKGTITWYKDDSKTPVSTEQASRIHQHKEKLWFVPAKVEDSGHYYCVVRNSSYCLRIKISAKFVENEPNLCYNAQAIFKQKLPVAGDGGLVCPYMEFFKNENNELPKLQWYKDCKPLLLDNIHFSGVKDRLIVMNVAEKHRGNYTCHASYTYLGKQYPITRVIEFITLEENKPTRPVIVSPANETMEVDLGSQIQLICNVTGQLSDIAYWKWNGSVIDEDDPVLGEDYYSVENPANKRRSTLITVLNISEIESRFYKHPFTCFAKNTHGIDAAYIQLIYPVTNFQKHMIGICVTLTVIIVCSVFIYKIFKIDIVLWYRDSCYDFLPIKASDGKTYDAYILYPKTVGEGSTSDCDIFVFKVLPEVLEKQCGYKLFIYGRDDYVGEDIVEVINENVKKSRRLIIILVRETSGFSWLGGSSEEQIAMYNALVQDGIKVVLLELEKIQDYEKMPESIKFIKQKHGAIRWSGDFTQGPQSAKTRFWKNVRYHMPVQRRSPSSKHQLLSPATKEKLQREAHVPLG
T1 sequence (Q9NPH3 21-570): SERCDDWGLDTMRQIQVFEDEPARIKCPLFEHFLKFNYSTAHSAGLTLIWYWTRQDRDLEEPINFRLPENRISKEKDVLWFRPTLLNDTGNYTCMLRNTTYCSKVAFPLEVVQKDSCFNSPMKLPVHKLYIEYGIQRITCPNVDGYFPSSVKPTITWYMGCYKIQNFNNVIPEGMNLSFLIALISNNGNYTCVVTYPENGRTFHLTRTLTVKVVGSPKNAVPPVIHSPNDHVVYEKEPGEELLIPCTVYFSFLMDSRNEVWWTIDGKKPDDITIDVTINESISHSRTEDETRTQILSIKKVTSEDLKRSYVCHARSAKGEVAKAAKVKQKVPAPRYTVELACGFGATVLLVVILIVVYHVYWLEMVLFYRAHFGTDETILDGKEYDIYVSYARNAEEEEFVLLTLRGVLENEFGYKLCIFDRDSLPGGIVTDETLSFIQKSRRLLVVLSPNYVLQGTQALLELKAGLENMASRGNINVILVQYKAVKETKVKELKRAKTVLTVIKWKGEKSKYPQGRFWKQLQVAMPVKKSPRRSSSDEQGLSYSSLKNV
In words: IL-1ß-induced TF-1 proliferation. The class given is cell-based. To be noted: Table 5; for Emax: TF-1.

The subject of experiment [2] is IL-1 ß-induced proliferation and PGE2 synthesis. In words: Structure vs activity summary of Table 4 (proliferation and PGE2 synthesis, not separated). The class given is cell-based. To be noted: Table 4, derivatives of TTI-101.107.
Experiment [3] deals with rats. In words: TNBS-induced inflammatory bowel disease model in rats, 48 h: MPO activity, macroscopic score, histologic score (Table 3: 1 no injury to 5 marked denudation). Format: in vivo. As to the method: Colon inflammation was induced by intra-rectal/colon administration of the hapten trinitrobenzene sulphonic acid (TNBS) as described in Example 4. Two hours prior to TNBS administration, peptides, peptidomimetics or 0.9% saline were administered intravenously (iv) via the caudal vein (various concentrations of mg/kg/d) (total volume of 0.3ml). […] A third group (control) was not injected with TNBS. For intermittent administration, fifteen minutes after TNBS administration, 101.10 (0.25-1 mg/kg), 101.107 (0.2 mg/kg), 101.113 (0.05-1 mg/kg) were administered by intermittent intraperitoneal injection (ip). Also, these IL-1R antagonists were given twice a day (BID); Remicade® (anti-TNFα) (10 mg/kg) and dexamethasone (0.75 mg/kg) were administered intraperitoneally but only once a day (qd). The intrarectal administration (ir) of 101.10, 101.113 (1 and 2.5 mg/kg), and 5-ASA (50 mg/kg) was done one hour after TNBS administration, and twice a day, except for 5-ASA which is once a day. Finally, 101.10 (1-5 mg/kg) was also administered orally by gavage (po), twice a day. Forty-eight hours after administration of TNBS, rats were killed by CO2 inhalation. Colon was removed and assessed macroscopically (adhesions, ulcerations, discoloration and bleeding) and histologically (neutrophil infiltration, epithelial injury, crypt distortion and ulcerations). One to seven animals per group were studied, according to treatments. Myeloperoxidase (MPO) activity was measured on tissue lysates.
TABLE 3: Histological Injury Scoring System

Experiment [4] has as its system piglet pial vessels. Set-up: species or system Yorkshire piglets. As to the method:
Ex vivo vasomotor response on brain vessels was performed as described (Li et al., 1996; Hou et al., 2000; Hou et al., 2001; Hou et al., 2003). Brains were removed from Yorkshire piglets. Slices of cortex exposing the pial vessels were pinned to a wax base of a 20 ml bath containing Krebs buffer (pH 7.4) equilibrated with 95% O2, 5% CO2 and maintained at 37°C. Microvessels were visualized and recorded using a video camera mounted on a dissecting microscope. Vascular diameter was measured using a digital image analyzer. Vascular diameter was recorded before and after topical application of pre-constricting agent, U46619 (10^-7 M). After stabilization of preparation, the ligand (IL-1β, 75 ng/ml) was added until stable vasodilation was detected. Peptides were subsequently added at different concentrations from 10^-10 to 10^-5 M. Reversal of vasodilatation was visualized and measured as previously described (Hou, et al. 2000; Hou et al. 2001; Hou et al. 2003); triplicate measurements were conducted on 2 animals.

Where [5] appears, read: intrarectal administration, dose 50.0-qd mg/kg/d.
[6] abbreviates: intermittent injection (ip), dose 0.75 - qd mg/kg/d.

pIC50: −log10 of the molar value. Where a SMILES comes first, the peptide text is derived from it. Where no end group is shown, it is not given here. [ ]: non-standard residue; d: D form.

Turning to KYTPEL [API-101.133], in experiment [1], the “Emax (%)” value is on record as less than 10% and the “activity compared with 101.113, in words” value was “little or no activity”.
“XRYTPELA (X=Acetyl) (Ac-[dR][dY][dT][dP][dE][dL][dA]) [API-101.121]”: in experiment [2], the “activity of the peptide, in words” value is “completely lost”.
Regarding `CC(C)C[C@@H](NC(=O)[C@@H](CCC(=O)O)NC(=O)[C@H]1CCCN1C(=O)[C@H](NC(=O)[C@@H](Cc1ccc(O)cc1)NC(=O)[C@H](N)CCCNC(N)=O)[C@H](C)O)C(N)=O` [API-101.134, XYTPEL (X=Citrulline)], the Emax in experiment [1] is 10%.
As to XYTPEL (X=Ornithine) [API-101.126], in experiment [1], the “Emax (%)” value is 0% and the “activity compared with 101.113, in words” value is “little or no activity”.
Consider `Nc1ccc(O)c(C(=O)O)c1` [5-ASA], for which, in experiment [3] (setting [5]), the “MPO (% of TNBS+Saline)” value is recorded as 49 % of TNBS+Saline, the “histologic evaluation (median score)” value came to 3.3 and the “macroscopic (median score)” value stood at 1.5.
Turning to `CC(C)C[C@@H](NC(=O)[C@@H](CCC(=O)O)NC(=O)[C@H]1CCCN1C(=O)[C@H](NC(=O)[C@@H](Cc1ccc(O)cc1)NC(=O)[C@H](N)CCCNC(=N)N)[C@H](C)O)C(=O)O` [API-101.113, RYTPEL], the Emax in experiment [1] came out at 70%.
Take `CC(C)C[C@@H](NC(=O)[C@@H](CCC(=O)O)NC(=O)[C@H]1CCCN1C(=O)[C@H](NC(=O)[C@@H](Cc1c[nH]c2ccccc12)NC(=O)[C@H](N)CCCNC(=N)N)[C@H](C)O)C(N)=O` [API-101.128, RWTPEL]: the “activity compared with 101.113, in words” value in experiment [1] was “relatively decreased”.
Consider `CC(C)C[C@@H](NC(=O)[C@@H](CCC(=O)O)NC(=O)[C@H]1CCCN1C(=O)[C@H](NC(=O)[C@@H](Cc1ccccc1)NC(=O)[C@H](N)CCCNC(=N)N)[C@H](C)O)C(N)=O` [API-101.132, RFTPEL] (HELM PEPTIDE1{[dR].[dF].[dT].[dP].[dE].[dL].[am]}$$$$V2.0; N-terminus and C-terminus assumed), for which, in experiment [1], the Emax was found to be 35% and the “activity compared with 101.113, in words” value is listed as “relatively decreased”.
As to `C[C@@H]1C[C@H]2[C@@H]3CCC4=CC(=O)C=C[C@]4(C)[C@@]3(F)[C@@H](O)C[C@]2(C)[C@@]1(O)C(=O)CO` [Dexamethasone, dexamethasone], in experiment [3] (setting [6]), the “MPO (% of TNBS+Saline)” value was 60 % of TNBS+Saline, the “histologic evaluation (median score)” value was 3 and the “macroscopic (median score)” value is given as 0.87.
Take `CC(C)C[C@@H](NC(=O)[C@@H](CCC(=O)O)NC(=O)[C@H]1CCCN1C(=O)[C@H](NC(=O)[C@@H](Cc1ccc(O)cc1)NC(=O)[C@@H](N)CCCNC(=N)N)[C@H](C)O)C(N)=O` [API-101.135, *RYTPEL]: the Emax in experiment [1] was 63%.
RFVPELA [API-101.127]: the “activity compared with 101.113, in words” value in experiment [1] was “completely abolished the activity”.
In turn, `CC(C)C[C@@H](NC(=O)[C@@H](CCC(=O)O)NC(=O)[C@H](NC(=O)[C@H](NC(=O)[C@@H](Cc1ccc(O)cc1)NC(=O)[C@@H](CCCNC(=N)N)NC(=O)[C@H]1CCCN1C(=O)[C@@H](C)N)[C@H](C)O)C(C)C)C(=O)N[C@H](C)C(=O)O` [API-101] showed a pIC50 in experiment [4] of 6.74.
In turn, `CC(C)[C@@H](NC(=O)[C@@H](CCC(=O)O)NC(=O)[C@H]1CCCN1C(=O)[C@H](NC(=O)[C@@H](Cc1ccc(O)cc1)NC(=O)[C@H](N)CCCNC(=N)N)[C@H](C)O)C(N)=O` [API-101.129, RYTPEV] yielded an Emax in experiment [1] of 50%.
